Laboratory results: US9113629B2, “4-amino-6-(4-substituted-phenyl)-picolinates and 6-amino-2-(4-substituted-phenyl)-pyrimidine-4-carboxylates and their use as herbicides” (DOW AGROSCIENCES LLC, priority 2013, dated 2015)
Read-outs that look alike come from different tables or passages of the source.

Columns and labels:
[1] = Post-emergent Test III, herbicidal activity in wheat and barley; type: in vivo, Lolium multiflorum, Lolium rigidum; conditions: Lolium multiflorum, post-emergence, 504 h, read-out: Visual Growth Reduction (%) 21 Days After Application LOLSS; for pest or weed control at 35 g/ha: 35 g ai/ha; for pest or weed control at 70 g/ha: 70 g ai/ha; for pest or weed control at 140 g/ha: 140 g ai/ha
Method in brief: (§1)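 GR20, GR50, GR80 and GR90 come from probit analysis of visual injury scores (0 = none, 100 = complete kill) taken 21 d after treatment. Foliar application was by track sprayer delivering 187 L/ha at five rates, from high down to 1/16×, onto greenhouse plants at the 2–3 leaf stage, with solvent-blank controls.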

LAMSS = assay: as above; type: in vivo; conditions: for pest or weed control at 35 g/ha / pest or weed control at 70 g/ha / pest or weed control at 140 g/ha: post-emergence, 504 h, read-out: Visual Growth Reduction (%) 21 Days After Application LAMSS; for pest or weed control at 35 g/ha: 35 g ai/ha; for pest or weed control at 70 g/ha: 70 g ai/ha; for pest or weed control at 140 g/ha: 140 g ai/ha; for GR50 LAMSS / GR80 LAMSS: probit analysis
Method in brief: as §1

[2] = dose for growth reduction of 50 percent, 21 days after application
[3] = dose for growth reduction of 80 percent, 21 days after application
[4] = Table 8, dose for 50 percent growth reduction, 21 d
[5] = Table 8, dose for 80 percent growth reduction, 21 d

Row | Compound | pest or weed control at 35 g/ha ([1]; Table 9, post-emergent, 21 d) | pest or weed control at 70 g/ha ([1]; Table 9, post-emergent, 21 d) | pest or weed control at 35 g/ha [1] | pest or weed control at 70 g/ha [1] | pest or weed control at 140 g/ha [1] | pest or weed control at 35 g/ha (LAMSS) | pest or weed control at 70 g/ha (LAMSS) | pest or weed control at 140 g/ha (LAMSS) | GR50 LAMSS (LAMSS; [2]) | GR80 LAMSS (LAMSS; [3]) | further results
1 | C#Cc1ccc(-c2nc(N)c(OC)c(C(=O)O)n2)cc1 [Compound 28] | 0 to 29% | 0 to 29% | – | – | – | – | – | – | – | – | –
2 | COC(=O)c1nc(-c2ccc(Br)cc2F)nc(N)c1OC [Compound 35] | 0 to 29% | 30 to 44% | – | – | – | – | – | – | – | – | –
3 | COc1c(N)nc(-c2ccc(Br)cc2F)nc1C(=O)O [Compound 46] | 0 to 29% | 30 to 44% | – | – | – | – | – | – | – | – | pest or weed control at 140 g/ha ([1]; Table 9, post-emergent, 21 d): 45 to 59%
4 | Nc1cc(-c2ccc(Br)c(F)c2F)nc(C(=O)O)c1Cl [Compound 91] | – | – | 0 to 29% | 0 to 29% | 0 to 29% | 95 to 100% | 95 to 100% | 95 to 100% | 1 g ai/ha | 3 g ai/ha | –
5 | Nc1cc(-c2ccc(Br)c(F)c2)nc(C(=O)O)c1Cl [Compound 110, 4-Amino-6-(4-bromo-3-fluorophenyl)-3-chloropicolinic acid] | – | – | – | – | – | – | – | – | – | – | GR50 LAMSS (LAMSS; [4]): 1 g ai/ha; GR80 LAMSS (LAMSS; [5]): 1 g ai/ha; pest or weed control at 35 g/ha (LAMSS; Table 8, post-emergent, 21 d): 95 to 100%; pest or weed control at 70 g/ha (LAMSS; Table 8, post-emergent, 21 d): 95 to 100%
6 | COc1c(N)nc(-c2ccc(Br)c(F)c2)nc1C(=O)O [Compound 113, 6-Amino-2-(4-bromo-3-fluorophenyl)-5-methoxypyrimidine-4-carboxylic acid] | – | – | – | – | – | – | – | – | – | – | GR50 LAMSS (LAMSS; [4]): 1 g ai/ha; GR80 LAMSS (LAMSS; [5]): 4 g ai/ha; pest or weed control at 35 g/ha (LAMSS; Table 8, post-emergent, 21 d): 95 to 100%; pest or weed control at 70 g/ha (LAMSS; Table 8, post-emergent, 21 d): 95 to 100%
7 | C#Cc1ccc(-c2nc(N)c(OC)c(C(=O)O)n2)c(F)c1F [Compound 154] | 0 to 29% | 0 to 29% | – | – | – | – | – | – | – | – | pest or weed control at 140 g/ha ([1]; Table 9, post-emergent, 21 d): 0 to 29%
8 | Nc1cc(-c2ccc(Br)cc2)nc(C(=O)O)c1Cl [Compound 168] | 0 to 29% | 45 to 59% | – | – | – | – | – | – | – | – | –
9 | COC(=O)c1nc(-c2ccc(F)c(F)c2F)c(F)c(N)c1Cl [Compound 186] | – | – | 0 to 29% | 0 to 29% | 0 to 29% | 75 to 84% | 85 to 94% | 85 to 94% | 1 g ai/ha | 25 g ai/ha | –
10 | COC(=O)c1nc(-c2ccc(F)cc2)c(F)c(N)c1Cl [Compound 204] | – | – | 0 to 29% | 0 to 29% | 0 to 29% | 85 to 94% | 95 to 100% | 95 to 100% | 1 g ai/ha | 8 g ai/ha | –
11 | Nc1c(F)c(-c2ccc(Cl)c(F)c2)nc(C(=O)O)c1Cl [Compound 217] | – | – | 45 to 59% | 60 to 74% | 60 to 74% | 95 to 100% | 95 to 100% | 95 to 100% | 1 g ai/ha | 2 g ai/ha | –
